According to ChEMBL document CHEMBL2074388 (Am J Physiol Renal Physiol, 2001):

B1: Solute carrier family 22 member 2 (Rattus norvegicus) (protein)
chain: MSTVDDILEHIGEFHLFQKQTFFLLALLSGAFTPIYVGIVFLGFTPDHHCWSPGAAKLSQRCGWSQAEELNYTVPGLGPSDEASFLSQCMRYEVDWNQSTLDCVDPLSSLAADRNQLPLGPCEHGWVYNTPGSSIVTEFNLVCAHSWMLDLFQSVVNVGFFIGAMMIGYLADRFGRKFCLLVTILINAISGALMAISPNYAWMLVFRFLQGLVSKAGWLIGYILITEFVGLGYRRMVGICYQIAFTVGLLILAGVAYVIPNWRWLQFAVTLPNFCFLLYFWCIPESPRWLISQNKIVKAMKIIKHIAKKNGKSVPVSLQNLTPDEDAGKKLNPSFLDLVRTPQIRKHTLILMYNWFTSSVLYQGLIMHMGLAGDNIYLDFFYSALVEFPAAFIIILTIDRVGRRYPWAVSNMVAGAACLASVFIPDDLQWLKITIACLGRMGITMAYEMVCLVNAELYPTYIRNLGVLVCSSMCDIGGIITPFLVYRLTDIWMEFPLVVFAVVGLVAGALVLLLPETKGKALPETIEDAENMQRPRKKKEKRIYLQVKQADRPLS
B2: Solute carrier family 22 member 1 (Rattus norvegicus) (protein)
chain: MPTVDDVLEQVGEFGWFQKQAFLLLCLISASLAPIYVGIVFLGFTPGHYCQNPGVAELSQRCGWSQAEELNYTVPGLGPSDEASFLSQCMRYEVDWNQSTLDCVDPLSSLVANRSQLPLGPCEHGWVYDTPGSSIVTEFNLVCGDAWKVDLFQSCVNLGFFLGSLVVGYIADRFGRKLCLLVTTLVTSVSGVLTAVAPDYTSMLLFRLLQGMVSKGSWVSGYTLITEFVGSGYRRTTAILYQMAFTVGLVGLAGVAYAIPDWRWLQLAVSLPTFLFLLYYWFVPESPRWLLSQKRTTRAVRIMEQIAQKNGKVPPADLKMLCLEEDASEKRSPSFADLFRTPNLRKHTVILMYLWFSCAVLYQGLIMHVGATGANLYLDFFYSSLVEFPAAFIILVTIDRIGRIYPIAASNLVTGAACLLMIFIPHELHWLNVTLACLGRMGATIVLQMVCLVNAELYPTFIRNLGMMVCSALCDLGGIFTPFMVFRLMEVWQALPLILFGVLGLTAGAMTLLLPETKGVALPETIEEAENLGRRKSKAKENTIYLQVQTGKSSST

Tests used:
[1] = biological target: T1, Solute carrier family 22 member 2 (Rattus norvegicus, UniProt Q9R0W2); type: functional, cell-based, Xenopus laevis, Oocyte
T1 sequence (Q9R0W2 whole entry): B1 chain

[2] = biological target: T2, Solute carrier family 22 member 1 (Rattus norvegicus, UniProt Q63089); type: functional, cell-based, Xenopus laevis, Oocyte
T2 sequence (Q63089 whole entry): B2 chain

[3] = biological target: T1, Solute carrier family 22 member 2; assay: TP_TRANSPORTER: inhibition of TEA uptake in Xenopus laevis oocytes; type: functional, cell-based, Oocyte
[4] = biological target: T1, Solute carrier family 22 member 2; assay: TP_TRANSPORTER: inhibition of TEA uptake (electrogenicity) in Xenopus laevis oocytes
[5] = substrate: C[N+](C)(C)CCO; assay: cells, lysate or membranes named
[6] = substrate: NCCc1c[nH]cn1; assay: cells, lysate or membranes named
[7] = substrate: CC[N+](CC)(CC)CC; assay: cells, lysate or membranes named
[8] = substrate: C[n+]1ccc(-c2ccccc2)cc1; assay: (§1) TP_TRANSPORTER: uptake in Xenopus laevis oocytes; type: functional, cell-based, Oocyte
[9] = substrate: N=C(N)N; assay: as §1; type: functional, cell-based, Oocyte
[10] = substrate: CNC(=O)c1cccnc1; assay: as §1; type: functional, cell-based, Oocyte

Molecule	IC50 [1]	IC50 [2]	other results
O=C(O)CCC(=O)C(=O)O [ALPHA-KETOGLUTARIC ACID]	700 µM	740 µM	–
Nc1ccc(C(=O)NCC(=O)O)cc1 [AMINOHIPPURIC ACID]	4500 µM	1300 µM	–
C[C@]12C[C@H](O)[C@H]3[C@@H](CCC4=CC(=O)CC[C@@]43C)[C@@H]1CC[C@@H]2C(=O)CO [CORTICOSTERONE]	4 µM	151 µM	–
CC[n+]1c(CC2C=C(C)N=C(c3ccccc3)N2C)ccc2ccccc21 (stereo unspecified) [Cyanine-863]	2.56 µM	0.51 µM	–
CNCCCN1c2ccccc2CCc2ccccc21 [DESIPRAMINE]	10 µM	–	–
N=C(N)N [GUANIDINE]	171 µM	4470 µM	–
CC(C)C(c1ccccc1)C(O)CC[N+]1(C)CCCCC1 (stereo unspecified) [MEPIPERPHENIDOL BROMIDE]	474 µM	7.1 µM	–
COc1cc(C(O)CNC(C)C)ccc1O (stereo unspecified) [METIPRENALINE]	–	37 µM	–
CCCN(CCC)S(=O)(=O)c1ccc(C(=O)O)cc1 [PROBENECID]	1700 µM	1640 µM	–
CCN(CC)CCNC(=O)c1ccc(N)cc1 [PROCAINAMIDE]	445 µM	–	–
C=C[C@H]1C[N@@]2CC[C@H]1C[C@@H]2[C@@H](O)c1ccnc2ccc(OC)cc12 [QUINIDINE]	14.6 µM	–	–
C=C[C@H]1C[N@@]2CC[C@H]1C[C@H]2[C@H](O)c1ccnc2ccc(OC)cc12 [QUININE]	–	–	Ki [3]: 55 µM
CCCC[N+](CCCC)(CCCC)CCCC [TETRABUTHYLAMMONIUM]	–	–	Ki [4]: 12 µM
C[N+](C)(C)C [TETRAMETHYLAMMONIUM]	630 µM	–	–
CCC[N+](CCC)(CCC)CCC [TETRAPROPYLAMMONIUM]	6.2 µM	11.3 µM	–
B1	–	–	Km [5]: 604 µM; Km [6]: 278 µM; Km [7]: 91 µM; Km [8]: 17 µM; Km [9]: 172 µM; Km [10]: 245 µM
B2	–	–	Km [6]: 300 µM; Km [9]: 1660 µM
